# Like-named read-outs stand apart in the source and are kept apart here. Where a SMILES comes first, the peptide text is derived from it. Bridges are numbered along the chain shown (N, C = ends). [ ]: non-standard residue; d: D form. The star is where a group is joined. DOTA = O=C(O)CN1CCN(CC(=O)O)CCN(CC(=O)*)CCN(CC(=O)O)CC1; Pro(trans-4-F) = O=C(O)[C@@H]1C[C@@H](F)CN1; Phe(4-Cl) = N[C@@H](Cc1ccc(Cl)cc1)C(=O)O; Hyp = O=C(O)[C@@H]1C[C@@H](O)CN1; dCit = NC(=O)NCCC[C@@H](N)C(=O)O; Pentanoyl(4-Me) = CC(C)CCC(=O)*; Cit = NC(=O)NCCC[C@H](N)C(=O)O; Nva = CCC[C@H](N)C(=O)O; Pentanoyl = CCCCC(=O)*
# Tests used:
# [1] = molecular target: T1, Recombinant soluble human NEP (Homo sapiens, UniProt P08473); assay: Proteolytic stability assay against NEP; type: in vitro ADME; details: recombinant soluble human NEP, human NEP 100 ng/mL, compound 10 µM, 37°C, LC-MS quantification, read-out: % intact compound remaining after 24h incubation
# T1 construct: Recombinant soluble human NEP; purchased BioTechne, Wiesbaden, Germany
# Experimental: To assess the stability of compounds against NEP, the compounds were subjected to an in vitro assay based on the protocol described by Edelson et al. (Edelson, Makhlina et al. 2013).
# Recombinant soluble human NEP (BioTechne, Wiesbaden, Germany) at a concentration of 100 ng/mL was mixed with the compound (10 µM) and a stable internal standard (10 µM) and incubated at 37°C. After several time points, samples were taken and analyzed with LC-MS.
# The determination of the analyte in the clean sample solutions was performed on an Agilent 1290 UHPLC system coupled to an Agilent 6530 Q-TOF mass spectrometer. The chromatographic separation was carried out on a Phenomenex BioZen XB-C18 HPLC column (50 × 2 mm, 1.7 µm particle size) with gradient elution using a mixture of 0.1% formic acid in water as eluent A and acetonitrile as eluent B (2% B to 41% in 7 min, 800 µl/min, 40°C). Mass spectrometric detection was performed in positive ion ESI mode by scanning the mass range from m/z 50 to 3000 with a sampling rate of 2 / sec.
# (§1) From the mass spectrometric raw data the ion currents for the double or triple charged monoisotopic signal was extracted for both, the compound and the internal standard.
# (§2) Quantitation was performed by external matrix calibration with internal standard using the integrated analyte signals.
# The activity of NEP was examined using a commercially available chromogenic substrate of NEP.
# (§3) The result is stated as "% intact compound remaining after 24 h incubation" and means that from the amount of material at the start of the experiment the stated percentage is detected as unchanged material at the end of the experiment by LC-MS quantification. Since all compounds are more than 50% intact after 24 h they are considered as stable enough for diagnostic and therapeutic applications. Table 14: Results of the NEP stability assay
# [2] = molecular target: T2, human uPAR (uPAR-Fc) (Homo sapiens, UniProt Q03405); assay: Surface plasmon resonance (SPR) assay, single cycle kinetics; type: binding; details: pKD category for uPAR SPR activity assay, uPAR-Fc on Protein A-Chip, 25°C, read-out: pKD CAT (converted)
# T2 construct: comprising amino acids Leu23-Arg303 according to UniProt entry Q03405.1; purchased R&D Systems 10378-UK-100
# Procedure, shortened: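 uPAR-Fc (Leu23-Arg303 extracellular domains, human IgG1 Fc) captured on Protein A chip to ~2000 RU; single-cycle kinetics at 25°C in HEPES running buffer pH 7.4 with 0.1% DMSO. KD from double-referenced sensorgrams fitted to 1:1 Langmuir model, reported as pKD.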
# [3] = molecular target: T3, uPAR-expressing HEC-265 human endometrial adenocarcinoma cells (Homo sapiens, UniProt Q03405); assay: Competitive FACS binding assay; details: pIC50 category of FACS binding
# T3 construct: Cell surface uPAR-expressing HEC-265 human endometrial adenocarcinoma cells; host or cells: HEC-265
# Procedure, shortened: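 HEC-265 cells incubated 1 h at 4 °C with 10 nM biotinylated uPAR peptide tracer plus increasing test compound, then stained with APC-streptavidin on ice. Median APC fluorescence by flow cytometry; 4PL fit gives pIC50.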
# [4] = Plasma stability assay (mouse plasma); type: in vitro ADME; details: mouse plasma (sodium citrate 3.7%), 37°C, LC-MS quantification, read-out: % intact compound remaining after 6h incubation Mouse plasma
# Experimental: (§4) In order to determine the stability of selected compounds of the invention in human and mouse plasma, a plasma stability assay was carried out. Such plasma stability assay measures degradation of compounds of the present invention in blood plasma. This is an important characteristic of a compound as compounds, with the exception of pro-drugs, which rapidly degrade in plasma, generally show poor in vivo efficacy. […] The stability is sufficient for the diagnostic, therapeutic and theragnostic use of these compounds according to the present invention.
# (§5) The plasma stability samples were prepared by spiking 50 µl plasma aliquots (all sodium citrate 3.7%) with 1 µl of a 0.5 mM compound stock solution in DMSO. After vortexing the samples were incubated in a Thermomixer at 37°C for 0 and 6 hours. After incubation the samples were stored on ice until further treatment. All samples were prepared in duplicates.
# A suitable internal standard was added to each sample (1 µl of a 0.5 mM stock solution in DMSO). Protein precipitation was performed using two different methods depending on the compound conditions as indicated in Table 13. • A) 250 µl of acetonitrile containing 1% trifluoroacetic acid was added. After incubation at room temperature for 30 min the precipitate was separated by centrifugation and 150 µl of the supernatant was diluted with 150 µl of 1% aqueous formic acid. • B) 150 µl of a zinc sulphate precipitation agent containing 78% 0.1 M zinc sulphate and 22% acetonitrile was added. After incubation at room temperature for 30 min the precipitate was separated by centrifugation. To 100 µl of the supernatant 10 µl of 1% formic acid was added followed by further incubation at 60°C for 10 min to complete the formation of the zinc chelate, if the compound contains a free DOTA moiety.
# The determination of the analyte in the clean sample solutions was performed on an Agilent 1290 UHPLC system coupled to an Agilent 6530 Q-TOF mass spectrometer. The chromatographic separation was carried out on a Phenomenex BioZen XB-C18 HPLC column (50 x 2 mm, 1.7 µm particle size).
# Two different elution gradients were applied using a mixture of 0.1% formic acid in water as eluent A and acetonitrile as eluent B: • A) 2% B to 41% in 7 min, 800 µl/min, 40°C. • B) 5% B to 50% B in 6 min, 800 µL/min, 40°C.
# Mass spectrometric detection was performed in positive ion ESI mode by scanning the mass range from m/z 50 to 3000 with a sampling rate of 2 / sec.
# as §1, §2
# (§6) Additionally, recovery was determined by spiking a pure plasma sample that only contained the internal standard after treatment with a certain amount of the compound.
# (§7) Carry-over was evaluated by analysis of a blank sample (20% acetonitrile) after the highest calibration sample.
# as §3, with “6” for “24”, “13:” for “14:”, “plasma” for “NEP”
# [5] = Plasma stability assay (human plasma); type: in vitro ADME; details: human plasma (sodium citrate 3.7%), 37°C, LC-MS quantification, read-out: % intact compound remaining after 6h incubation Human plasma
# Experimental: as §4, §5
# A suitable internal standard was added to each sample (1 µl of a 0.5 mM stock solution in DMSO). Protein precipitation was performed using two different methods depending on the compound conditions as indicated in Table 13. • A) 250 µl of acetonitrile containing 1% trifluoroacetic acid was added. […]
# as §2, §6, §7
# The result is stated as "% intact compound remaining after 6 h incubation" and means that from the amount of material at the start of the experiment the stated percentage is detected as unchanged material at the end of the experiment by LC-MS quantification. […]
# T2 sequence (Q03405 23-303): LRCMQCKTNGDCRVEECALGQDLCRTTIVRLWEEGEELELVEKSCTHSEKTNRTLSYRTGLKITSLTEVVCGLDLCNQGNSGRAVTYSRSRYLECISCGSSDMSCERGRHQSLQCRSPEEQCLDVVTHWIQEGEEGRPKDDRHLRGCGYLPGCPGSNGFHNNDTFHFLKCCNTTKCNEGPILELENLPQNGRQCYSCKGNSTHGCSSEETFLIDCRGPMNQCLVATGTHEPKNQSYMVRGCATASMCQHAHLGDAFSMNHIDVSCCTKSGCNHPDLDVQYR
# T3 sequence (Q03405 23-335): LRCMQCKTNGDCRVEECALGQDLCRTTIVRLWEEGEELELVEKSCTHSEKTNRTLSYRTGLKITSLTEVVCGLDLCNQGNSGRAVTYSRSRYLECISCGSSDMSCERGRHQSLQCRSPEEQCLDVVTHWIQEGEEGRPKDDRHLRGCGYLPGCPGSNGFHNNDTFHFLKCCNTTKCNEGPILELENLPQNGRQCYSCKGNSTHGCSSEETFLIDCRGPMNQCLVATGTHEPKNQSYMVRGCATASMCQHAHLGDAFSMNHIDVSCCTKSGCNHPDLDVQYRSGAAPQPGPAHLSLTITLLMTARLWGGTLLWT
# T1 sequence (P08473 52-750 limits assumed): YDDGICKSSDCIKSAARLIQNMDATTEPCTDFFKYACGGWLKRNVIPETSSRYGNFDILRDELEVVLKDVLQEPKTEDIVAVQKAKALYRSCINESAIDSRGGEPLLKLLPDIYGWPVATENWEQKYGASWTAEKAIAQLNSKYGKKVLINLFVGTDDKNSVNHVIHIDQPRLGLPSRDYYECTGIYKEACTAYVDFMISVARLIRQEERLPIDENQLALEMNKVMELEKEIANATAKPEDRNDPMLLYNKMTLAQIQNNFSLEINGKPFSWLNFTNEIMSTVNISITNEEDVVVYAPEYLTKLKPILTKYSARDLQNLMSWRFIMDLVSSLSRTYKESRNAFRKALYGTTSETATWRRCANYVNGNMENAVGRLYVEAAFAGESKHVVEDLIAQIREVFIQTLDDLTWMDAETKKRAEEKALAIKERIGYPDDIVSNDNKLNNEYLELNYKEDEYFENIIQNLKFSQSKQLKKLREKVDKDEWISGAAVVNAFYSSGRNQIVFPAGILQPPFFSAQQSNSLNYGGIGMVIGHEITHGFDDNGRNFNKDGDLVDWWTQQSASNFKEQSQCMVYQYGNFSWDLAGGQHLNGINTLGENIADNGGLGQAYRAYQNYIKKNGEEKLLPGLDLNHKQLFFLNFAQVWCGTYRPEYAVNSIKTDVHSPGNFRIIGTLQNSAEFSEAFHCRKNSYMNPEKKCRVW
SMILES,"remaining at 24 h, 10 µM [1]",Kd [2],IC50 [3],Kd ([2]; single cycle kinetics),"remaining at 6 h, 9.8 µM [4]","remaining at 6 h, 9.8 µM [5]"
"CCCCC(=O)N[C@H]1CSSC[C@@H](C(N)=O)NC(=O)[C@H](CCC)NC(=O)[C@H]([C@@H](C)CC)NC(=O)[C@@H]2C[C@@H](F)CN2C(=O)[C@@H]2CCCN2C(=O)[C@H](Cc2ccccc2)NC(=O)[C@H](Cc2ccc(O)cc2)NC(=O)[C@H](CCCCNC(=O)CN2CCN(CC(=O)O)CCN(CC(=O)O)CCN(CC(=O)O)CC2)NC(=O)[C@H](CCCNC(N)=O)NC1=O [UPAR-246, Pent-[Cys-Cit-Lys(DOTA)-Tyr-Phe-Pro-4Tfp-Ile-Nva-Cys]-NH2] (Pentanoyl-C[Cit]K(DOTA)YFP[Pro(trans-4-F)]I[Nva]C-NH2; disulfide 1-10)",89%,< 1.58 nM,≤ 10 nM,–,–,–
"CCCCC(=O)N[C@H]1CSSC[C@@H](C(N)=O)NC(=O)[C@H](CCC)NC(=O)[C@H]([C@@H](C)CC)NC(=O)[C@@H]2C[C@@H](O)CN2C(=O)[C@@H]2CCCN2C(=O)[C@H](Cc2ccc(Cl)cc2)NC(=O)[C@H](Cc2ccc(O)cc2)NC(=O)[C@H](CCCCNC(=O)CN2CCN(CC(=O)O)CCN(CC(=O)O)CCN(CC(=O)O)CC2)NC(=O)[C@H](CCCNC(N)=O)NC1=O [UPAR-233, Pent-[Cys-Cit-Lys(DOTA)-Tyr-Pcf-Pro-Hyp-Ile-Nva-Cys]-NH2] (Pentanoyl-C[Cit]K(DOTA)Y[Phe(4-Cl)]P[Hyp]I[Nva]C-NH2; disulfide 1-10)",> 95%,< 1.58 nM,≤ 10 nM,–,–,–
"CC[C@H](C)[C@@H]1NC(=O)[C@@H](C)NC(=O)[C@@H]2CCCN2C(=O)[C@H](Cc2ccccc2)NC(=O)[C@H](Cc2ccc(O)cc2)NC(=O)[C@H](CCC(N)=O)NC(=O)[C@@H](CCCNC(N)=O)NC(=O)[C@@H](NC(=O)CCC(C)C)CSSC[C@@H](C(N)=O)NC(=O)[C@H](CC(C)C)NC1=O [UPAR-364, iHex-[Cys-cit-Gln-Tyr-Phe-Pro-ala-Ile-Leu-Cys]-NH2] ({Pentanoyl(4-Me)}-C[dCit]QYFP[dA]ILC-NH2; disulfide 1-10)",> 95%,–,≥ 126 nM,> 100 nM,–,–
"CCCCC(=O)N[C@H]1CSSC[C@@H](C(N)=O)NC(=O)[C@H](CCC)NC(=O)[C@H]([C@@H](C)CC)NC(=O)[C@@H]2C[C@@H](O)CN2C(=O)[C@@H]2CCCN2C(=O)[C@H](Cc2ccccc2)NC(=O)[C@H](Cc2ccc(O)cc2)NC(=O)[C@H](CCCCNC(=O)CN2CCN(CC(=O)O)CCN(CC(=O)O)CCN(CC(=O)O)CC2)NC(=O)[C@H]([C@@H](C)O)NC1=O [UPAR-301, Pent-[Cys-Thr-Lys(DOTA)-Tyr-Phe-Pro-Hyp-Ile-Nva-Cys]-NH2] (Pentanoyl-CTK(DOTA)YFP[Hyp]I[Nva]C-NH2; disulfide 1-10)",–,< 1.58 nM,≤ 10 nM,–,91%,> 95%
